Experimental data taken from patent publication US20140348958A1, “Anticancer Active Ingredient From Guiera Senegalensis” (UNIVERSITE D'AUVERGNE CLERMONT I, priority 2011, published 2014).
Where “and” joins values, the source holds several entries; their conditions need not be identical. Equal entries are not always repeated. Where two headings read alike, the source gives them in different places.

System: mammary cancer cells MCF-7
Assay: Proliferation measurement of mammary cancer cells MCF-7 (resazurin, 72 hrs exposure)
Format: cell-based
Conditions: for IC50: Homo sapiens; for Inhibition percentage: screening, single values and Averages
Experimental: Detailed Procedure of the Proliferation Measurement of Mammary Cancer Cells MCF-7
1st Part Day 1: Sowing the Cells
1. Preparation of the Medium:
• Preparation of the volume to be put into the plates:
In a 50 mL Falcon, prepare 30 mL of complete RPMI with 10% FCS and 1% Glutamine: 27 mL of RPMI: 3 mL of FCS and 300 μL of Glutamine.
2. Preparation of the Cell Suspension:
• Suck up the medium contained in the flask with the vacuum pump • Rinse with 3 mL of PBS and suck up with the vacuum pump • Add 1 mL of trypsin and let it act for 3 mins in the oven at 37° C. in order to detach the cells. • When the cells are detached, add 2 mL of complete medium prepared previously for inactivating the trypsin. • Mix well the suspension by suction-discharge and transfer into a well-defined Falcon 15. • Count the cells in a Malassez cell: carry out dilution to one 20th for counting them with Trypan blue.
• Sow the plates with 200 μL of cell suspension according to the determined scheme • Put 200 μL of water in the peripheral wells • Leave for incubation for 24 hours.
2nd Part: Day 2, the Extract is Exposed
4. Preparation of the Medium:
A total of 45 mL of medium to be prepared in a Falcon 50 sterilized i.e. 40.5 mL of RPMI+4.5 mL of FCS+450 μL of glutamine
5. Preparation of the Extracts:
• prepare a 10 mg/mL solution: • Dissolve 8.1 mg of crude extract (noted as SF) according to Example 1, of the SF 5 fraction according to Example 2 or of the KP-18^E fraction (Guieranone B) in 810 μL of DMSO • Prepare the mother solution of extract (Ex) at 100 μg/mL i.e. 50 μL of (10 mg/ml) in 4,950 μL of RPMI • Produce the range of extracts (for 1 extract and only 1 range). • Remove the medium in the plates and add 200 μL per well of an extract range (one column per concentration). • Incubate the plates in the oven at 37° C. for 72 hrs.
6. Prepare Resazurin (Developer) and Read the Plate to
2 columns of cells+one column of resazurin alone=3 columns
200 μL/well×3 columns×6 lines=3,600 μL (total volume to be prepared: 5 mL) • Prepare 4.9 mL of medium+100 μL resazurin
Remove the medium and add 200 μL of (medium+resazurin) per well. • Incubate for 2 hours and read with fluorskan. 3rd Part: Measurement of Proliferation at 24 Hours (for t0), 72 Hrs for Extract • For the extract at 72 hrs:
200 μL/well×18 columns×6 lines (total volume to be prepared: 25 mL) • Prepare 24.5 mL of RPMI+500 μL of resazurin • Remove the medium and add 200 μL of (medium+resazurin) per well. • After 2 hours, readout with fluorskan.

[1] = MCF7, MCF-7 mammary cancer cell line, same conditions (Table 2), read-out: Average Cl50 in μM
[2] = MCF7, MCF-7 mammary cancer cell line, same conditions (Table 2), read-out: Average Cl50 in μg/mL
[3] = MCF7, mammary cancer line MCF-7, same conditions (Table 15, identical with Table 2), read-out: Average CI50 in μM
[4] = MCF7, mammary cancer line MCF-7, same conditions (Table 15, identical with Table 2), read-out: Average CI50 in μg/mL

IC50 (MCF7, 72 h, KP-18E, MCF-7, 72 hrs, average of the 6 tests, read-out: Average C150)	IC50 (MCF7, 72 h, KP-18E, MCF-7, 72 hrs, each of the 6 tests (1-2, N1-N3), read-out: CI50 (the source's name))	IC50 [1]	IC50 [2]	IC50 [3]	IC50 [4]	SMILES	Inhibition percentage (KP-18E 1.5 μg/mL, MCF-7, 72 hrs)	Inhibition percentage (KP-18E 1.5 μg/mL, MCF-7, 72 hrs, mean)	Inhibition percentage (KP-18E 2 μg/mL, MCF-7, 72 hrs)	Inhibition percentage (KP-18E 2 μg/mL, MCF-7, 72 hrs, mean)	Inhibition percentage (KP-18E 2.5 μg/mL, MCF-7, 72 hrs)	Inhibition percentage (KP-18E 2.5 μg/mL, MCF-7, 72 hrs, mean)	Inhibition percentage (KP-18E 3 μg/mL, MCF-7, 72 hrs)	Inhibition percentage (KP-18E 3 μg/mL, MCF-7, 72 hrs, mean)	Inhibition percentage (KP-18E 4 μg/mL, MCF-7, 72 hrs)	Inhibition percentage (KP-18E 4 μg/mL, MCF-7, 72 hrs, mean)	Inhibition percentage (KP-18E 5 μg/mL, MCF-7, 72 hrs)	CI50 (KP-18E, MCF-7, 72 hrs, each of the 6 tests (1-2, N1-N3))	antiproliferative activity (in words) (line of mammary cancer cells MCF-7)
2.25 µg/mL	2.05 µg/mL	7.09 µM	2.24 ± 0.13 µg/mL	7.09 µM	2.24 ± 0.13 µg/mL	C/C=C/C(=O)C1=CC(OC)=C2C(=O)C(OC)=CC(OC)=C2C1=O [Guieranone B]	49.86% and 36.10% and 48.15% and 50.66% and 53.59% and 53.16%	48.59%	68.59% and 62.54% and 43.35% and 59.58% and 61.13% and 48.79%	57.33%	69.73% and 57.84% and 59.61% and 65.92% and 65.73% and 68.02%	64.48%	94.22% and 77.40% and 86.16% and 83.19% and 84.81% and 92.10%	86.31%	100.00% and 99.38%	99.90%	100.00%	2.7202 µg/mL and 2.1664 µg/mL and 2.5518 µg/mL and 2.067 µg/mL and 1.9176 µg/mL	high antiproliferative activity
–	–	4.04 ± 0.39 µM	0.53 ± 0.05 µg/mL	4.04 ± 0.39 µM	0.53 ± 0.05 µg/mL	O=c1[nH]cc(F)c(=O)[nH]1 [5-FU, 5-Fluorouracil, reference compound]	–	–	–	–	–	–	–	–	–	–	–	–	–
